Here are results for one compound from publication PMC5613016, “GRL-09510, a Unique P2-Crown-Tetrahydrofuranylurethane -Containing HIV-1 Protease Inhibitor, Maintains Its Favorable Antiviral Activity against Highly-Drug-Resistant HIV-1 Variants in vitro” (Scientific Reports, 2017).

Format in all cases: cell-based
The test system of assay [1] is HIV-1NL4-3. Kind of assay: In vitro selection of resistant HIV-1 variants in MT-4 cells. From the text:
MT-4 cells (10^5/ml) were exposed to HIV-1NL4-3 (500 TCID50) and cultured in the presence of compounds at an initial concentration of its EC50 value. Viral replication was monitored by the determination of the amount of p24 produced by MT-4 cells. The supernatants were harvested on day 7 and were used to infect fresh MT-4 cells for the next round of culture in the presence of increasing concentrations of each compound. Proviral DNAs obtained from the lysates of infected cells were subjected to sequencing. This selection procedure was carried out until the drug concentration reached 5 μM as previously described[20]–[22]).

In assay [2] the test system is laboratory and primary clinical HIV-1 isolates. Kind of assay: Antiviral activity, summary over strains. To be noted: Human immunodeficiency virus 1; range over isolates; read-out: EC50 against laboratory and primary clinical HIV-1 isolates. Here is the method: The susceptibility of HIV-1LAI or HIV-2ROD to various compounds was determined as previously described[20]–[22]. Briefly, MT-2 cells (10^4/ml) were exposed to 100 TCID50 of HIV-1LAI or HIV-2ROD in the presence or absence of various concentrations of compounds in 96-well plates and were incubated at 37 °C for 7 days. After incubation, 100 μl of the medium was removed from each well, 3-(4,5-dimetylthiazol-2-yl)-2,5-diphenyltetrazolium bromide (MTT) solution (10 μl, 7.5 mg/ml in PBS) was added to each well, followed by incubation at 37 °C for 2 h. […] To determine the sensitivity of clinically isolated HIV-1s to compounds, PHA-PBMC (10^6/ml) were exposed to 50 TCID50 of each HIV-1 and cultured in the presence or absence of various concentrations of compounds in 10-fold serial dilutions in 96-well plates. In determining the drug-susceptibility of certain laboratory HIV-1 strains, MT-4 cells were employed as target cells as previously described[23],[24]. MT-4 cells (10^5/ml) were exposed to 100 TCID50 of drug-resistant HIV-1s in the presence or absence of various concentrations of compounds and were incubated at 37 °C. On day 7, the supernatants were harvested and the amounts of p24 were determined by using a fully-automated chemiluminescent enzyme immunoassay system (Lumipulse f: Fujirebio, Tokyo)[35]–[37]. […]

A further assay has as its system HIV-1_9510 ^R 36P. Kind of assay: p24 production inhibition in MT-4 cells. An outline of the steps:
(§1)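 MTT read-out after 7 d at 37 °C for MT-2 (10^4/ml) challenged with 100 TCID50 virus ± compound. p24 by chemiluminescent EIA on day 7 for PHA-PBMC (10^6/ml, 50 TCID50) and MT-4 (10^5/ml, 100 TCID50).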

In a further assay the test system is HIV-1ATV ^R 5μM. Kind of assay: p24 production inhibition in MT-4 cells. An outline of the steps:
(§2)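 MT-2 cells (10^4/ml) infected with 100 TCID50 of HIV-1LAI or HIV-2ROD were cultured with compound for 7 days at 37 °C, then read by MTT. PHA-PBMC (10^6/ml, single donor per experiment) received 50 TCID50 clinical HIV-1 with 10-fold compound dilutions; MT-4 cells (10^5/ml) received 100 TCID50; day-7 supernatant p24 measured by chemiluminescent immunoassay.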

Assay [3] deals with HIV-1NL4-3. In words: p24 production inhibition in MT-4 cells. Conditions: Human immunodeficiency virus 1, MT4, MT-4 cells. The essentials: as §2
A further assay relates to HIV-1APV ^R 5μM. In words: p24 production inhibition in MT-4 cells. The essentials: as §1
The mark [4] stands for this setting: number in parentheses, compared to HIV-1NL4-3.

As usually defined, the EC50 is the concentration at which the effect is half-maximal.

Regarding `COc1ccc(S(=O)(=O)N(CC(C)C)CC(O)C(Cc2ccccc2)NC(=O)OC2C3COC4OCC2C4C3)cc1` (centres unmarked) [GRL-09510], the “selection concentration reached after 24 passages” value in the assay with HIV-1NL4-3 [1] (HIV-1NL4-3 first exposed to 0.003 µM) was 0.105 µM. Also, the “concentrations in which the virus began continuously failing to propagate” value with HIV-1NL4-3 [1] (at around passage 30, selection discontinued at passage 37) is over 0.27 µM. For the same compound, the “fold greater selection concentration than the initial concentration after 24 passages” value with HIV-1NL4-3 [1] (initial 0.003 µM) is 35 fold. Moreover, the concentration giving a half-maximal response (EC50) in assay [2] was 1.4 to 2.8 nM; with HIV-1_9510 ^R 36P (Human immunodeficiency virus 1, MT4, MT-4 cells, p24 assay, read-out: EC50 HIV-1_9510 ^R 36P) it was 24 ± 2 nM; with HIV-1ATV ^R 5μM (read-out: EC50 HIV-1ATV ^R 5μM, MT-4 cells, p24 Gag production) it was 3.7 ± 0.9 nM; in the assay with HIV-1NL4-3 [3] (p24 Gag production, Table 3), 2.8 ± 0.7 nM; in the assay with HIV-1NL4-3 [3] (p24 assay, Table 4, four to six independent experiments) it was 2.2 ± 0.9 nM; with HIV-1APV ^R 5μM (read-out: EC50 HIV-1APV ^R 5μM, MT-4 cells, p24 Gag production), 4.8 ± 0.1 nM. Besides, the “fold change of EC50 HIV-19510RP36” value in the assay with HIV-1_9510 ^R 36P (compared to EC50 for HIV-1NL4-3, Supplemental Table 3) was 11. In the assay on HIV-1_9510 ^R 36P (compared to the value against HIV-1NL4-3), the “fold change of EC50 HIV-1_9510 ^R 36P” value was found to be 11. Besides, the “fold change of EC50 HIV-1ATV ^R 5μM” value in the assay on HIV-1ATV ^R 5μM (setting [4]) is on record as 1. Besides, the “fold change in EC50 HIV-1APVR5M” value in the assay with HIV-1APV ^R 5μM (compared to HIV-1NL4-3, Supplemental Table 4) is listed as 2. The “fold change of EC50 HIV-1APV ^R 5μM” value in the assay with HIV-1APV ^R 5μM (setting [4]) was 2.
